pIC50: −log10 of the molar value.
Test system: 439559-082-T-J2-PDC spheroids viability
Test: Anticancer human tumor 439559-082-T-J2-PDC patient-derived colon adenocarcinoma cell line growth inhibition [GQUAD]
Conditions: for pIC50: curve of first compound; for viability, T/C: stronger effect = lower value
Description: DNA G-quadruplex Stabilizer Agents in Combinations in Complex Spheroids
A high-throughput screen of multi-cell type tumor spheroids was designed to identify active combinations of DNA G-quadruplex stabilizer agents and targeted small molecules. Complex spheroids include a stromal component modeled by human endothelial cells (HUVEC) and fibroblasts modeled by human mesenchymal stem cells (MSCs). The concentration ranges selected for each drug and investigational agent were based upon clinically achievable concentrations if the clinical Cmax of the agent was known.
Compounds. The drugs and investigational agents: pidnarulex (CX-5461; NSC782164), APTO-253 (NSC789042), BRACO-19 (NSC847499), peposertib (NSC802822), ceralasertib (NSC780249), elimusertib (NSC800525), camonsertib (NSC841442), AZD-1390 (NSC803789), olaparib (NSC753686), talazoparib (NSC767125), ART-558 (NSC835418), sotorasib (NSC818433), MRTX-1133 (NSC836407), SN-38 (NSC673596), topotecan (NSC609699), etoposide (NSC141540), doxorubicin (NSC123127), gemcitabine (NSC613327), 5-fluorouracil (NSC19893), paclitaxel (NSC125973), vemurafenib (NSC761431), panobinostat (NSC761190), R-306465 (JNJ-16241199; NSC773264), adavosertib (NSC754352), TP-3654 (NSC805149), carboplatin (NSC241240), KSQ-4279 (NSC840948), and staurosporine (NSC755774) were obtained from the National Cancer Institute (NCI) Developmental Therapeutics Program Chemical Repository (34). The FDA-approved anticancer drug set is available from the NCI Developmental Therapeutics Program. […] The stock solutions were prepared in dimethyl sulfoxide (DMSO, Sigma-Aldrich, St. Louis, MO, cat. D2650) at 800-fold the tested concentration and stored at -70 degrees C prior to their use. All drugs and investigational agents were tested over a range starting from a high concentration at or near the clinical Cmax and decreasing in half-log increments. If the clinical Cmax for an agent had not been determined, the highest concentration tested was 10 microM.
2.3 Cell Culture. All cells were maintained in an incubator at 37 degrees C and 5% CO2 with 95% humidity. The PDC lines were cultured according to standard operating procedures established by the NCI PDMR. All PDCs were thawed and cultured in Matrigel-coated flasks prepared with a working solution of 1X Ham's F-12 nutrient mix, without supplementation (Invitrogen, cat. 11765054), 100 U/mL penicillin-streptomycin (Invitrogen, cat. 15140122), and 2.5% Matrigel (Corning Inc., cat. 354248) for the first three passages. The 857933-349-R-J2-PDC line was cultured in 6C/Colon 1B media, which includes advanced DMEM/F-12 (Thermo Fisher Scientific, cat. 12634028), 10 mM HEPES (Thermo Fisher Scientific, cat. 15630080), 1X GlutaMAX supplement (Thermo Fisher Scientific, cat. 35050061), 0.1 mg/mL primocin (InvivoGen, cat. ant-pm-2), 10% defined fetal bovine serum, heat inactivated (HyClone Laboratories Inc., cat. SH30070.03HI), 50% L-WRN conditioned media (ATCC, cat. CRL-3276), 1.25 mM N-Acetyl-L-cysteine (Sigma-Aldrich, cat. A9165), 10 mM nicotinamide (Sigma-Aldrich, cat. N0636), 1X B-27 supplement (Thermo Fisher Scientific, cat. 17504044), 1X N-2 supplement (Thermo Fisher Scientific, cat. 17502048), 10 microM Y-27632 dihydrochloride (Tocris Bioscience, cat. 1254), and 50 ng/mL human EGF recombinant protein (Thermo Fisher Scientific, cat. PHG0311). The 485176-168-R4-J1-PDC line was cultured in Panc media, which includes all 6C/Colon 1B media components plus 100 ng/mL human FGF-10 (Thermo Fisher Scientific, cat. 100-26), 500 nM SB-431542 (Selleckchem, cat. S1067), and gastrin (Tocris, cat. 3006).
[…]

[1] = second compound 0.0316 µM, first compound 0.0316 µM
[2] = second compound 0.0316 µM, first compound 0.1 µM
[3] = second compound 0.0316 µM, first compound 0.316 µM
[4] = second compound 0.0316 µM, first compound 1 µM
[5] = second compound 0.0316 µM, first compound 3.16 µM
[6] = second compound 0.0316 µM, first compound 10 µM
[7] = second compound 0.1 µM, first compound 0.0316 µM
[8] = second compound 0.1 µM, first compound 0.1 µM
[9] = second compound 0.1 µM, first compound 0.316 µM
[10] = second compound 0.1 µM, first compound 1 µM
[11] = second compound 0.1 µM, first compound 3.16 µM
[12] = second compound 0.1 µM, first compound 10 µM
[13] = second compound 0.316 µM, first compound 0.0316 µM
[14] = second compound 0.316 µM, first compound 0.1 µM
[15] = second compound 0.316 µM, first compound 0.316 µM
[16] = second compound 0.316 µM, first compound 1 µM
[17] = second compound 0.316 µM, first compound 3.16 µM
[18] = second compound 0.316 µM, first compound 10 µM
[19] = second compound 1 µM, first compound 0.0316 µM
[20] = second compound 1 µM, first compound 0.1 µM
[21] = second compound 1 µM, first compound 0.316 µM
[22] = second compound 1 µM, first compound 1 µM
[23] = second compound 1 µM, first compound 3.16 µM
[24] = second compound 1 µM, first compound 10 µM
[25] = second compound 3.16 µM, first compound 0.0316 µM
[26] = second compound 3.16 µM, first compound 0.1 µM
[27] = second compound 3.16 µM, first compound 0.316 µM
[28] = second compound 3.16 µM, first compound 1 µM
[29] = second compound 3.16 µM, first compound 3.16 µM
[30] = second compound 3.16 µM, first compound 10 µM
[31] = second compound 10 µM, first compound 0.0316 µM
[32] = second compound 10 µM, first compound 0.1 µM
[33] = second compound 10 µM, first compound 0.316 µM
[34] = second compound 10 µM, first compound 1 µM
[35] = second compound 10 µM, first compound 3.16 µM
[36] = second compound 10 µM, first compound 10 µM
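Note: spheroids exposed to the agents for 7 days before readout.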
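Throughout, for viability, T/C: percent of luminescence signal in DMSO vehicle wells taken as 100% viability.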

C=CC(=O)N1CCN(c2nc(=O)n(-c3c(C)ccnc3C(C)C)c3nc(-c4c(O)cccc4F)c(F)cc23)C(C)C1 (stereo unspecified) + Cc1[nH]c2ccc(F)cc2c1-c1nc2c3cccnc3c3ncccc3c2[nH]1
pIC50 (second compound 0.0316 µM): < 5.00
pIC50 (second compound 0.1 µM): < 5.00
pIC50 (second compound 0.316 µM): < 5.00
pIC50 (second compound 1 µM): < 5.00
pIC50 (second compound 3.16 µM): < 5.00
pIC50 (second compound 10 µM): < 5.00
viability, T/C [1]: 106%
viability, T/C [2]: 92.6%
viability, T/C [3]: 99.3%
viability, T/C [4]: 103%
viability, T/C [5]: 109%
viability, T/C [6]: 101%
viability, T/C [7]: 103%
viability, T/C [8]: 95.5%
viability, T/C [9]: 101%
viability, T/C [10]: 95.4%
viability, T/C [11]: 112%
viability, T/C [12]: 96.5%
viability, T/C [13]: 108%
viability, T/C [14]: 95.1%
viability, T/C [15]: 102%
viability, T/C [16]: 103%
viability, T/C [17]: 104%
viability, T/C [18]: 97.8%
viability, T/C [19]: 89.3%
viability, T/C [20]: 103%
viability, T/C [21]: 93.4%
viability, T/C [22]: 93.8%
viability, T/C [23]: 100%
viability, T/C [24]: 88.7%
viability, T/C [25]: 89.1%
viability, T/C [26]: 90.5%
viability, T/C [27]: 85.6%
viability, T/C [28]: 92.4%
viability, T/C [29]: 92.1%
viability, T/C [30]: 80.2%
viability, T/C [31]: 64.6%
viability, T/C [32]: 73.1%
viability, T/C [33]: 84%
viability, T/C [34]: 76%
viability, T/C [35]: 79.3%
viability, T/C [36]: 80.3%

CC1COCCN1c1cc(C2(O)CC3CCC(C2)O3)c2cnn(-c3ccn[nH]3)c2n1 (stereo unspecified) + Cc1[nH]c2ccc(F)cc2c1-c1nc2c3cccnc3c3ncccc3c2[nH]1
pIC50 (second compound 0.0316 µM): 5.77
pIC50 (second compound 0.1 µM): 5.59
pIC50 (second compound 0.316 µM): 5.84
pIC50 (second compound 1 µM): 5.83
pIC50 (second compound 3.16 µM): 6.06
pIC50 (second compound 10 µM): 6.06
viability, T/C [1]: 84.5%
viability, T/C [2]: 84.2%
viability, T/C [3]: 78.2%
viability, T/C [4]: 58.6%
viability, T/C [5]: 38.9%
viability, T/C [6]: 39.5%
viability, T/C [7]: 89.5%
viability, T/C [8]: 76.3%
viability, T/C [9]: 71.1%
viability, T/C [10]: 61.9%
viability, T/C [11]: 46.7%
viability, T/C [12]: 35.2%
viability, T/C [13]: 97.2%
viability, T/C [14]: 80.2%
viability, T/C [15]: 70.8%
viability, T/C [16]: 49.9%
viability, T/C [17]: 44.6%
viability, T/C [18]: 37.3%
viability, T/C [19]: 83.8%
viability, T/C [20]: 77.3%
viability, T/C [21]: 70.2%
viability, T/C [22]: 55%
viability, T/C [23]: 40.3%
viability, T/C [24]: 33.4%
viability, T/C [25]: 85.7%
viability, T/C [26]: 67.8%
viability, T/C [27]: 63.5%
viability, T/C [28]: 51%
viability, T/C [29]: 32.8%
viability, T/C [30]: 27%
viability, T/C [31]: 75.4%
viability, T/C [32]: 74.5%
viability, T/C [33]: 57.1%
viability, T/C [34]: 52.1%
viability, T/C [35]: 33.4%
viability, T/C [36]: 27.1%

O=C(c1cc(Cc2n[nH]c(=O)c3ccccc23)ccc1F)N1CCN(C(=O)C2CC2)CC1 + Cc1[nH]c2ccc(F)cc2c1-c1nc2c3cccnc3c3ncccc3c2[nH]1
pIC50 (second compound 0.0316 µM): < 5.00
pIC50 (second compound 0.1 µM): < 5.00
pIC50 (second compound 0.316 µM): < 5.00
pIC50 (second compound 1 µM): < 5.00
pIC50 (second compound 3.16 µM): < 5.00
pIC50 (second compound 10 µM): < 5.00
viability, T/C [1]: 100%
viability, T/C [2]: 110%
viability, T/C [3]: 91.5%
viability, T/C [4]: 96.8%
viability, T/C [5]: 102%
viability, T/C [6]: 96.3%
viability, T/C [7]: 103%
viability, T/C [8]: 104%
viability, T/C [9]: 94.9%
viability, T/C [10]: 90.5%
viability, T/C [11]: 103%
viability, T/C [12]: 100%
viability, T/C [13]: 103%
viability, T/C [14]: 99.3%
viability, T/C [15]: 105%
viability, T/C [16]: 102%
viability, T/C [17]: 107%
viability, T/C [18]: 89.9%
viability, T/C [19]: 105%
viability, T/C [20]: 102%
viability, T/C [21]: 98.3%
viability, T/C [22]: 99.3%
viability, T/C [23]: 105%
viability, T/C [24]: 89%
viability, T/C [25]: 90.8%
viability, T/C [26]: 79%
viability, T/C [27]: 92.7%
viability, T/C [28]: 89.9%
viability, T/C [29]: 98.8%
viability, T/C [30]: 87.3%
viability, T/C [31]: 88.2%
viability, T/C [32]: 87.1%
viability, T/C [33]: 86.2%
viability, T/C [34]: 76%
viability, T/C [35]: 90.5%
viability, T/C [36]: 89.5%
